The values that follow come from ChEMBL document CHEMBL4028862 (J Med Chem, 2017).

Structures are written as SMILES. Active and inactive are the calls of the source. The calls are words filed in the database; no cut-off is given here.

In series [1] the target is T1, Acid-sensing ion channel 1 (Rattus norvegicus, UniProt P55926).
T1 sequence (P55926 whole entry): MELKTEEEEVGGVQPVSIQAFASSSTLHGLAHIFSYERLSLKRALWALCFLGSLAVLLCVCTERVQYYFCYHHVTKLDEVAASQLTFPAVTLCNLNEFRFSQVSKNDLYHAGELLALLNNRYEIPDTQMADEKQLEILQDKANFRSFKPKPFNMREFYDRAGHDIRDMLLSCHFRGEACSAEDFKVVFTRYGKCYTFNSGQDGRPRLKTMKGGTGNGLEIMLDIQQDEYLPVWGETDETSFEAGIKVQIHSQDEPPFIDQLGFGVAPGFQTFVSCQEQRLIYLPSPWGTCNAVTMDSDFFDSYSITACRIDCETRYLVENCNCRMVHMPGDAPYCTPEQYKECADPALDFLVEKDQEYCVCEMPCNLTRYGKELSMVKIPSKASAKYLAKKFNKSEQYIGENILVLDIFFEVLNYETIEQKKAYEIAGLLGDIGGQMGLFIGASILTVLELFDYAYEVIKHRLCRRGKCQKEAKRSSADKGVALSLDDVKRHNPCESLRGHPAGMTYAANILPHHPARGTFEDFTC
The series is described as follows: Inhibition of rat ASIC1a receptor expressed in xenopus lavies oocytes assessed as inhibition of pH 6.7-gated currents by two electrode voltage clamp. The series is classed as cell-based. (In general: In two-electrode clamp one electrode senses voltage and the other passes current.)

The target of series [2] is T2, Acid-sensing ion channel 3 (Rattus norvegicus, UniProt O35240).
T2 sequence (O35240 whole entry): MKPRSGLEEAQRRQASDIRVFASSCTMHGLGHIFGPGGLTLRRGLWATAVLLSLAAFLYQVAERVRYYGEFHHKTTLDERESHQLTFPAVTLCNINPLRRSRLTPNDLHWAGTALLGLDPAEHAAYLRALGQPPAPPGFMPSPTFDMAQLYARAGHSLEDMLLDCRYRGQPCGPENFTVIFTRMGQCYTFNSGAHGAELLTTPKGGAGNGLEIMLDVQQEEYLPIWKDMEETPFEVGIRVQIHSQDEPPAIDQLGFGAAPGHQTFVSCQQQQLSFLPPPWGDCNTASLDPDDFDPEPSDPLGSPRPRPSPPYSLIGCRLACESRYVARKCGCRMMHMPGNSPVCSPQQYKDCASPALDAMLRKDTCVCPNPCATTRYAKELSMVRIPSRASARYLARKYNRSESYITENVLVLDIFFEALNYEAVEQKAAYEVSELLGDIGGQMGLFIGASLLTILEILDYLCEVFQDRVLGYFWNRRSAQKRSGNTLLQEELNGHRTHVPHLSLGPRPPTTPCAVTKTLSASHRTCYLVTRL
Kind of series: Inhibition of rat ASIC3 receptor expressed in xenopus lavies oocytes assessed as inhibition of pH 6.4-gated currents by two electrode voltage clamp. It counts as cell-based.

Series [3] has as its target T3, Acid-sensing ion channel 1 (Rattus norvegicus) (UniProt P55926).
T3 sequence (whole entry): T1 sequence (P55926 whole entry)
Kind of series: Inhibition of rat ASIC1a receptor expressed in xenopus lavies oocytes at 0.1 to 3 mM at greater than pH 5 by two electrode voltage clamp. The series is classed as cell-based.

Series [4] deals with T3, Acid-sensing ion channel 1 (Rattus norvegicus). Kind of series: Inhibition of rat ASIC1a receptor expressed in xenopus lavies oocytes at 0.03 to 3 mM at greater than pH 5 by two electrode voltage clamp. It counts as cell-based.
Series [5] is described as follows: Solubility of the compound in buffer at less than pH 5. It counts as physicochemical.
A short description of series [6]: Solubility of the compound in buffer at pH 4. The series is classed as physicochemical.
The target in series [7] is T3, Acid-sensing ion channel 1 (Rattus norvegicus).
Another series can be described thus: cells. The following applies: Rattus norvegicus.

Turning to `Cc1ccc(C(C)C(=O)O)cc1` (centres undefined), the IC50 in series [1] was > 10000 µM; in series [2], 708 µM.

Take `CC(C)Cc1ccc(C(C)[N+](=O)[O-])cc1` (centres undefined): in series [3], the inhibition result is “inactive”.

Regarding `CCC(C(=O)O)c1ccc(CC(C)C)cc1` (centres undefined) [BUTIBUFEN], the IC50 in series [1] is 182 µM; in series [2] it was 288 µM.

For `CC(C)Cc1ccc(CC(=O)O)cc1` [IBUFENAC], the IC50 is 1020 µM in series [1] and 417 µM in series [2].

With `CC(C)Cc1ccc(C(F)C(=O)O)cc1` (centres undefined), the figures for the IC50 in series [1] and in series [2] were 955 µM and 891 µM, respectively.

For the molecule `CC(C)Cc1ccc(C(=O)O)cc1`, the inhibition result in series [4] was “Active”. The IC50 is 417 µM in series [1] and 302 µM in series [2].

As to `CC(C(=O)O)c1ccc(-c2ccccc2)c(F)c1` (racemic) [FLURBIPROFEN], the results for the IC50 in series [1] and in series [2] were 170 µM and 229 µM, respectively.

With `CC(C)Cc1ccc(C(C)C(=O)O)cc1` (racemic) [IBUPROFEN], the solubility entry in series [5] and in series [6] was “Insoluble” in each case. In addition, the pH50 in series [7] came to 6.6. For the same molecule, the IC50 is 3 mM in “cells” and 3.16 mM in the series “cells” (read-out: pIC50 (converted)).
